One series concerns SH-SY-5Y cells. Kind of series: cells. Conditions: for protection against Aβ toxicity: 10 μM, pretreatment 24 h; for protection against Aβ toxicity / length of cytoprotection against Aβ toxicity: 20 μM Aβ (1-42); for inhibition at 1000 µM: Homo sapiens, SH-SY5Y, SH-SY-5Y, compound 1 mM 24 h; for length of cytoprotection against Aβ toxicity: pretreatment of SH-SY-5Y cells. The format is cell-based. On the procedure:
(§1) Cytotoxicity Studies: Protection against β-amyloid 1-42 cytotoxicity in SH-SY-5Y cells was measured by standard MTT assays. SH-SY-5Y cells were seeded in 96-well plates at the density of 30,000 cells/well. After overnight incubation, the cells were exposed to GSH or Ψ-GSH at a concentration of 1 mM for 24 h at 37° C. After 24 h of incubation, the drug-containing medium was replaced with media containing 20 μM β-amyloid 1-42 peptide and the incubation was allowed to continue for additional 24 hours after the addition of the drugs. At the end of the incubation, 20 μL of MTT stock solution (5 mg/mL) was added to each well and incubated for 3 h at 37° C. The MTT reaction medium was discarded and the purple-blue MTT formazan crystals were dissolved by the addition of 100 μL of 0.1 N HCl in isopropanol. The optical density (OD), a reflection mitochondrial function of the viable cells, was read directly with a microplate reader (BioTek SynergyHT, VT, USA) at 580 nm and a reference wavelength of 680 nm. Concentration response graphs were generated for each drug using GraphPad Prism software (GraphPad Software, Inc., San Diego, Calif., USA). Results are expressed as mean percent inhibition of β-amyloid toxicity with the standard error of the mean. In another set of experiments, cells were preincubated with a glyoxalase I inhibitor, S-(p-bromobenzylglutathione) (1 mM) for 24 hours before addition of βamyloid1-42 peptide (20 μM).
as §1, with “Protection” for “Cytotoxicity Studies: Protection”, “against β-amyloid^1-42” for “against β-amyloid 1-42”, “cells/well. […]” for “cells/well. After overnight incubation, the cells were exposed to GSH or Ψ-GSH at a concentration of 1 mM for 24 h at 37° C.”, “μM β-amyloid^1-42” for “μM β-amyloid 1-42”, “20 μl,” for “20 μL”, “mean.” for “mean. In another set of experiments, cells were preincubated with a glyoxalase I inhibitor, S-(p-bromobenzylglutathione) (1 mM) for 24 hours before addition of βamyloid1-42 peptide (20 μM).”

A short description of series [1]: Pharmacokinetic evaluation in plasma. It counts as in vivo, C57BL/6 mice. The note with it: single i.p. dose 500 mg/kg; for CL_F Clearance / absorption half-life / half-life / AUC / Cmax / Tmax: C57BL/6 mice, plasma; for absorption half-life / half-life / AUC / Cmax / Tmax: female, ip; for absorption half-life / half-life: C57BL/6, mouse, 500 mg/kg; for absorption half-life: read-out: K01 absorption half life (converted); for half-life: read-out: K10 elimination half life (converted); for AUC / Cmax / Tmax: mouse. On the procedure:
Pharmacokinetic Evaluation of Ψ-GSH. Eight weeks old C57BL/6 female mice (n=4 animals/time point) were given 500 mg/kg of GSH or Ψ-GSH in saline intraperitoneally. Blood samples were collected at […], 1, 2, 4, 8, 24 hr after the drug administration through retro-orbital bleeding into heparin-coated tubes. Blood was immediately centrifuged at 5000×g for 10 min at 4° C. The top plasma layer was transferred into a new tube and mixed with an equal volume of 5% sulfosalicylic acid in […] potassium phosphate buffer containing 1 mM EDTA disodium salt (pH 7.2). This was followed by centrifugation of samples at 8000×g for 10 min at 4° C. and analysis of thiol concentration. The derivatization reaction was realized utilizing 130 μL of the supernatant, 500 μL of Tris-HCl buffer 0.5 M, pH 8.9 and 350 μL of DTNB 10 mM in of K2HPO4 (0.5 M, pH 8.0). After 5 min in an ice bath, the reaction mixture was acidified by addition of 100 μL H3PO4 7 M and centrifuged at 3000×g for 10 min. Then, derivatized GSH or Ψ-GSH was filtered through a 0.22 μm membrane and 20 μL was injected in HPLC at 330 nm. HPLC analysis was carried out on a Beckman Coulter Gold HPLC system, controlled by a system controller (32 Karat workstation with PC). The HPLC conditions employed a Varian Microsorb column (C18, 5 μm, 4.6×250 mm) using solvent A [water containing 0.9% v/v formic acid] and solvent B [acetonitrile] with 1 mL/min flow rate and detected at 330 nm. Solvent B was increased from 0 to 30% in 9 min, then to 80% in 7 min, and held at 80% for an additional 4 min. The retention time for derivatized Ψ-GSH was 11.8 minutes.

The test system of another series is APP/PS1 mice. Kind of series: Immunohistochemistry of Aβ plaques in brain. It counts as in vivo. On the procedure:
Efficacy Study Design. To determine the effect of intraperitoneal and oral Ψ-GSH treatment, the study was divided in four groups (10 mice/group). 1. APP/PS1 mice-vehicle control, 2. APP/PS1 mice-Ψ-GSH i.p. 500 mg/kg, 3. APP/PS1 mice-Ψ-GSH oral 500 mg/kg, 4. Non-transgenic wild type mice-vehicle control. All the animals in the above-said groups were treated with saline or Ψ-GSH three times a week for 12 weeks, starting at the age of three to four months. Eleven weeks after the start of the treatment, the animals were tested in the Morris water maze, and twelve weeks after the start of the treatment, the animals were sacrificed for histopathological analysis.
Immunohistochemistry. Mice were anesthetized, and their brains were removed, cut sagittaly. Following post-fixation of right hemisphere in Zamboni's fixative (4% paraformaldehyde and 15% picric acid in 0.25 M sodium phosphate, pH 7.5) for 48 h before being cryopreserved in a 30% (wt/vol) sucrose in phosphate-buffered saline solution. Brains were then were embedded in O.C.T. Tissue Tek Compound (Miles Scientific) and were cryosectioned at 10 μm thickness for immunohistochemistry, mounted on Superfrost™ microscope slides (Erie Scientific, Portsmouth N.H.) and stored at […] until their utilization.
The brain sections were stained with a primary antibody against 0-amyloid peptide (Cell signaling, Cat. #2454) at a dilution of 1:200 in PBS. […]

[2] abbreviates: then 20 μM Aβ1-42 24 h, read-out: % Inhibition of Cell Growth with Aβ1-42.
Where [3] appears, read: without Aβ1-42, read-out: % Inhibition of Cell Growth without Aβ1-42.

Read-outs that look alike come from different tables or passages of the source.

One may read the inhibition as the change of the read-out against control, counted positive when it falls. As a reminder, the half-life is the time in which the quantity being followed falls by half. As usually defined, the AUC is concentration integrated over time. High values mean high exposure, low ones low exposure. What is called Cmax is the highest concentration seen after dosing. What is called Tmax is the time from dosing to the highest level.

As for `N[C@@H](CCC(=O)N[C@@H](CS)C(=O)NCC(=O)O)C(=O)O` [GSH, Glutathione], in the series on SH-SY-5Y cells, the “protection against Aβ toxicity” value was “fully protected the cells” and the “length of cytoprotection against Aβ toxicity” value is “significant only until day 3”. Moreover, the inhibition at 1000 µM with SH-SY-5Y cells (setting [2]) was found to be 12%. Further, the inhibition at 1000 µM with SH-SY-5Y cells (setting [3]) was determined as 0%. Besides, in series [1], the “CL_F Clearance” value is 165.9 mL/min/kg, the absorption half-life was 7.62 min, the half-life was 29.7 min and the AUC stood at 50.2 µg·h/mL. In series [1], the peak level (Cmax) was 43.9 µg/mL and the Tmax amounted to 20.2 min.
Consider `N[C@@H](CNC(=O)N[C@@H](CS)C(=O)NCC(=O)O)C(=O)O` [Ψ-GSH, γ-Gla-Cys-Gly-OH], for which, in the series on SH-SY-5Y cells, the “protection against Aβ toxicity” value was “fully protected the cells” and the “length of cytoprotection against Aβ toxicity” value is on record as “five days”. Further, the inhibition at 1000 µM with SH-SY-5Y cells (setting [2]) turned out to be 4%. Besides, in the series with SH-SY-5Y cells (setting [3]), the inhibition at 1000 µM turned out to be 0%. In series [1], the “CL_F Clearance” value was 31.15 mL/min/kg, the absorption half-life was 10.3 min, the half-life is 73.6 min and the AUC came to 267 µg·h/mL. For the same compound, in series [1], the peak level (Cmax) was 110 µg/mL, the time to peak (Tmax) was found to be 34 min, the “AUC relative to GSH” value is recorded as 5.3 fold and the “Cmax relative to GSH” value came out at 2.5 fold. Moreover, the “Tmax relative to GSH” value in series [1] was determined as 3 fold. Further, the “number and size of Aβ plaques” value in the series with APP/PS1 mice (i.p.) is reported as “drastically reduced”. Also, the “Aβ plaques relative to controls” value with APP/PS1 mice (oral) is “modest decrease”.

Values taken from patent US9394338B2, “Glutathione analogs and uses thereof” (REGENTS OF THE UNIVERSITY OF MINNESOTA, priority 2011, dated 2016).
